Data published in the NIST ThermoML archive (doi:10.1016/j.jct.2014.01.012).

Assay: xn = mol fraction of the nth substance listed
Settings: 101 kPa, Liquid

CCCCCCCC[n+]1ccn(C)c1.F[P-](F)(F)(F)(F)F [1-octyl-3-methylimidazolium hexafluorophosphate] + CCCCOC(C)=O
Settings	mass density [kg/m3]	speed of sound [m/s]
293.15 K, x1 = 0.1078	957.599	1231.1
293.15 K, x1 = 0.2016	1010.44	1251
293.15 K, x1 = 0.3056	1058.02	1273.2
293.15 K, x1 = 0.3855	1088.56	1291.6
293.15 K, x1 = 0.4815	1119.98	1309.4
293.15 K, x1 = 0.5918	1150.6	1328.2
293.15 K, x1 = 0.6857	1173.18	1343.6
293.15 K, x1 = 0.7784	1193.01	1358.4
293.15 K, x1 = 0.8946	1215.11	1375.1
293.15 K, x1 = 1	1222.81	1388.2
298.15 K, x1 = 0.1078	953.226	1211.6
298.15 K, x1 = 0.2016	1006.23	1232.7
298.15 K, x1 = 0.3056	1053.87	1256.9
298.15 K, x1 = 0.3855	1084.42	1275
298.15 K, x1 = 0.4815	1115.96	1293.4
298.15 K, x1 = 0.5918	1146.75	1313.3
298.15 K, x1 = 0.6857	1169.44	1328.8
298.15 K, x1 = 0.7784	1189.32	1343.7
298.15 K, x1 = 0.8946	1211.35	1361.6
298.15 K, x1 = 1	1218.9	1373.4
303.15 K, x1 = 0.1078	948.745	1192.2
303.15 K, x1 = 0.2016	1001.93	1214.5
303.15 K, x1 = 0.3056	1049.62	1239.7
303.15 K, x1 = 0.3855	1080.26	1258.8
303.15 K, x1 = 0.4815	1111.97	1278.6
303.15 K, x1 = 0.5918	1142.89	1298.6
303.15 K, x1 = 0.6857	1165.73	1314.7
303.15 K, x1 = 0.7784	1185.68	1329.6
303.15 K, x1 = 0.8946	1207.65	1347.1
303.15 K, x1 = 1	1214.96	1359.3
308.15 K, x1 = 0.1078	944.257	1172.8
308.15 K, x1 = 0.2016	997.643	1196.4
308.15 K, x1 = 0.3056	1045.4	1222.6
308.15 K, x1 = 0.3855	1076.13	1242.8
308.15 K, x1 = 0.4815	1107.98	1263.5
308.15 K, x1 = 0.5918	1139.12	1284
308.15 K, x1 = 0.6857	1162.11	1300.8
308.15 K, x1 = 0.7784	1182.13	1315.8
308.15 K, x1 = 0.8946	1204.03	1333.5
308.15 K, x1 = 1	1211.13	1345.8
313.15 K, x1 = 0.1078	939.644	1153.7
313.15 K, x1 = 0.2016	993.304	1178.5
313.15 K, x1 = 0.3056	1041.23	1205.7
313.15 K, x1 = 0.3855	1072.05	1226.9
313.15 K, x1 = 0.4815	1104.1	1248.4
313.15 K, x1 = 0.5918	1135.23	1269.7
313.15 K, x1 = 0.6857	1158.31	1286.8
313.15 K, x1 = 0.7784	1178.4	1302.1
313.15 K, x1 = 0.8946	1200.3	1322.1
313.15 K, x1 = 1	1207.33	1332.7
318.15 K, x1 = 0.1078	935.027	1134.6
318.15 K, x1 = 0.2016	988.947	1160.7
318.15 K, x1 = 0.3056	1037	1189
318.15 K, x1 = 0.3855	1067.9	1211.2
318.15 K, x1 = 0.4815	1100.12	1233.6
318.15 K, x1 = 0.5918	1131.33	1255.5
318.15 K, x1 = 0.6857	1154.61	1273.1
318.15 K, x1 = 0.7784	1174.85	1288.7
318.15 K, x1 = 0.8946	1196.83	1309.5
318.15 K, x1 = 1	1203.5	1320.1
323.15 K, x1 = 0.1078	930.067	1115.7
323.15 K, x1 = 0.2016	984.404	1143
323.15 K, x1 = 0.3056	1032.8	1172.3
323.15 K, x1 = 0.3855	1063.84	1195.6
323.15 K, x1 = 0.4815	1096.14	1218.8
323.15 K, x1 = 0.5918	1127.43	1241.6
323.15 K, x1 = 0.6857	1150.89	1259.4
323.15 K, x1 = 0.7784	1171.35	1275.5
323.15 K, x1 = 0.8946	1193.45	1296.1
323.15 K, x1 = 1	1199.67	1307.7

CCCCCCCC[n+]1ccn(C)c1.F[P-](F)(F)(F)(F)F [1-octyl-3-methylimidazolium hexafluorophosphate] + CCOC(C)=O
Settings	mass density [kg/m3]	speed of sound [m/s]
293.15 K, x1 = 0.1056	992.13	1246.8
293.15 K, x1 = 0.2064	1052.79	1300.8
293.15 K, x1 = 0.308	1097.25	1323
293.15 K, x1 = 0.4094	1130.77	1339
293.15 K, x1 = 0.4991	1154.21	1349
293.15 K, x1 = 0.5916	1174.12	1356.8
293.15 K, x1 = 0.694	1192.49	1363.1
293.15 K, x1 = 0.8121	1210.2	1368.1
293.15 K, x1 = 0.8895	1220.31	1374.2
293.15 K, x1 = 1	1222.81	1388.2
298.15 K, x1 = 0.1056	987.426	1228.2
298.15 K, x1 = 0.2064	1048.5	1284.8
298.15 K, x1 = 0.308	1093.04	1303.4
298.15 K, x1 = 0.4094	1126.53	1325
298.15 K, x1 = 0.4991	1150	1335.1
298.15 K, x1 = 0.5916	1169.99	1342.7
298.15 K, x1 = 0.694	1188.53	1348.9
298.15 K, x1 = 0.8121	1206.48	1353.8
298.15 K, x1 = 0.8895	1216.63	1358.3
298.15 K, x1 = 1	1218.9	1373.4
303.15 K, x1 = 0.1056	982.485	1209.8
303.15 K, x1 = 0.2064	1044	1268.9
303.15 K, x1 = 0.308	1088.65	1288.2
303.15 K, x1 = 0.4094	1122.2	1309
303.15 K, x1 = 0.4991	1145.83	1320.9
303.15 K, x1 = 0.5916	1166.01	1328.6
303.15 K, x1 = 0.694	1184.79	1334.7
303.15 K, x1 = 0.8121	1202.87	1339.7
303.15 K, x1 = 0.8895	1212.97	1345.2
303.15 K, x1 = 1	1214.96	1359.3
308.15 K, x1 = 0.1056	977.389	1191.5
308.15 K, x1 = 0.2064	1039.34	1253
308.15 K, x1 = 0.308	1084.23	1273.5
308.15 K, x1 = 0.4094	1117.99	1298
308.15 K, x1 = 0.4991	1141.76	1306.3
308.15 K, x1 = 0.5916	1162.11	1314.2
308.15 K, x1 = 0.694	1180.99	1320.5
308.15 K, x1 = 0.8121	1199.1	1325.6
308.15 K, x1 = 0.8895	1209.17	1331.3
308.15 K, x1 = 1	1211.13	1345.8
313.15 K, x1 = 0.1056	972.526	1173.3
313.15 K, x1 = 0.2064	1034.74	1237.5
313.15 K, x1 = 0.308	1079.71	1258.3
313.15 K, x1 = 0.4094	1113.66	1282
313.15 K, x1 = 0.4991	1137.66	1292.8
313.15 K, x1 = 0.5916	1158.28	1300.8
313.15 K, x1 = 0.694	1177.41	1307.2
313.15 K, x1 = 0.8121	1195.57	1312.3
313.15 K, x1 = 0.8895	1205.55	1318.4
313.15 K, x1 = 1	1207.33	1332.7
318.15 K, x1 = 0.1056	967.143	1155.2
318.15 K, x1 = 0.2064	1029.94	1222.1
318.15 K, x1 = 0.308	1075.23	1243.5
318.15 K, x1 = 0.4094	1109.39	1268
318.15 K, x1 = 0.4991	1133.54	1279.3
318.15 K, x1 = 0.5916	1154.33	1287.5
318.15 K, x1 = 0.694	1173.67	1294
318.15 K, x1 = 0.8121	1192.1	1299.2
318.15 K, x1 = 0.8895	1202.11	1305.2
318.15 K, x1 = 1	1203.5	1320.1
323.15 K, x1 = 0.1056	962.069	1132.4
323.15 K, x1 = 0.2064	1025.26	1206.9
323.15 K, x1 = 0.308	1070.7	1229.1
323.15 K, x1 = 0.4094	1105.03	1250
323.15 K, x1 = 0.4991	1129.38	1265.9
323.15 K, x1 = 0.5916	1150.44	1274.2
323.15 K, x1 = 0.694	1170.05	1280.9
323.15 K, x1 = 0.8121	1188.56	1286.3
323.15 K, x1 = 0.8895	1198.5	1292.2
323.15 K, x1 = 1	1199.67	1307.7
